According to US20260232684A1, “FLT3 INHIBITORS AND METHODS OF USING THE SAME” (BIOVENTURES, LLC, priority 2023, published 2026):

Key:
[1] = system: normal donor bone marrow mononuclear cells (BM-MNC); assay: Colony forming unit assay of normal bone marrow
Procedure: FIG. 2. […] Normal bone marrow mononuclear cells (BM-MNC) were purchased from StemCell Technologies. 30,000 cells were plated in methylcellulose with increasing concentrations of either gilteritinib, 1, or 2. Blast forming unit-erythroid (BFU-E) and colony forming unit-granulocyte (CFU-G) were counted after 14 days incubation. Assay was completed in triplicate with three independent blood donors. Data shown is cumulated from all independent experiments. Error bars show one standard deviation and p values compared to control were calculated using a Student's t-test. NS indicates an insignificant p value, * indicates p value≤0.05, ** indicates p value≤0.01, *** indicates p value≤0.001, **** indicates p value≤0.0001
Bone marrow mononuclear cells (BM-MNC) of healthy donors (n=3) were purchased from StemCell Technologies (Vancouver, Canada). Cells were plated in a 35 mm dish in triplicate with methylcellulose medium at a concentration previously determined to form approximately 100 total colonies, usually 30,000 cells/mL and containing the appropriate amount of drug. Dishes were incubated for 14-15 days and visually assessed for erythrocyte burst-forming units and granulocyte-macrophage colony-forming units.

[2] = system: Molm-14 F691L cells stably expressing firefly luciferase; assay: Circulating tumor model, Molm14 F691L luciferase; assay type: in vivo; conditions: mice
Procedure: FIG. 7. […] Molm14 F691L stably expressing FLuc9 were engrafted in mice through tail vein injection. Mice were imaged once every three days.
Molm-14 F691L cells stably expressing firefly luciferase were injected into the tail vein of NSG mice and tumor growth was monitored through bioluminescence.

Molm14 F691L cells = assay: Cell viability assay (CellTiter GLO), Molm14 F691L; assay type: cell-based, human; conditions: 48 hours
Procedure: (§1) FIG. 1. […] Cells were treated with inhibitor at increasing log doses (0.1 nM-10 μM) for 48 hours. Cell viability was analyzed through CellTiter GLO. […] Cells were exposed to increasing amounts of each drug for 2 hours. GAPDH1 represents loading control for phospho-ERK and ERK blots. GAPDH2 represents loading control for phosphor-STAT5, STAT5, phospho-S6 and S6. Each experiment was completed in triplicate. Representative images are shown.
(§2) FIG. 5. […] Cells were dosed with inhibitor at increasing log doses (0.1 nM-10 μM) for 48 hours. Cell viability was analyzed through CellTiter GLO.
(§3) MV-4-11 and parental Molm-14 cells were a gift from Dr. Scott Kogan (University of California, San Francisco). HL60 and K562 cell lines were obtained from Charles Sawyers. […] Stable Ba/F3 lines were generated by retroviral infection as previously described (5). All cell lines were tested to be mycoplasma free and human cell lines were authenticated through STR profiling completed at the University of California, Berkeley.
(§4) Each triplicate was either dosed with drug or DMSO vehicle control. Drug dosing was completed at log doses ranging from 0.1 nM-10 μM. Cell viability was assessed after 48 hours using CellTiter GLO (Promega). Viability values were normalized to the vehicle control average. Numerical IC50 values were calculated in GraphPad Prism 7.

Molm14 D835Y cells = assay: Cell viability assay (CellTiter GLO), Molm14 D835Y; assay type: cell-based, human; conditions: 48 hours
Procedure: as §1, §2, §3, §4

Compound	impact on CFU-G counts/growth ([1]; equivalent multiples of Molm14 IC50, 14 days, three healthy donors)	impact on BFU-E counts/growth ([1]; human, 14 days)	maximally tolerated dose [2] [mg/kg]	activity in cell viability assay (IC50, FIG. 1A/5B), in words (Molm14 F691L cells)	activity in cell viability assay (IC50, FIG. 1A/5B), in words (Molm14 D835Y cells)
CCc1nc(C(N)=O)c(Nc2ccc(N3CCC(N4CCN(C)CC4)CC3)c(OC)c2)nc1NC1CCOCC1 [gilteritinib, reference compound]	substantial impairment in BFU-E and CFU-G counts at 50× and 100×IC50	substantial impairment in BFU-E and CFU-G counts at 50× and 100×IC50	33		
CC(C)(C)c1cc(NC(=O)Nc2ccc(-c3cn4c(n3)sc3cc(OCCN5CCOCC5)ccc34)cc2)no1 [quizartinib, reference compound]				severely diminished activity	severely diminished activity
